Data from ChEMBL document CHEMBL5465560, “Selectivity Literature for EUbOPEN Chemogenomic Library” (2024).

Tests used:
[1] = molecular target: Protein arginine N-methyltransferase 6 (Homo sapiens, UniProt Q96LA8); experiment: Selectivity interaction (Methyltransferase screen (radiometric assays, panel of 8 PRMTs, 21 protein lysine methyltransferases, 3 DNA methyltransferases, and one RNA methyltransferase)) EUB0000272b PRMT6
[2] = molecular target: 5'-AMP-activated protein kinase catalytic subunit alpha-1 (Homo sapiens, UniProt Q13131); experiment: Selectivity interaction (Ambit KINOMEscan and KiNATiv profiling in Jurkat cells) EUB0000090b PRKAA1; assay type: cell-based; details: at 1 µM
[3] = molecular target: Mitogen-activated protein kinase 8 (Homo sapiens, UniProt P45983); experiment: Selectivity interaction (Kinase panel (literature)) EUB0001199aCl MAPK8; details: at 1 µM
[4] = molecular target: T1, Ephrin type-B receptor 3 (Homo sapiens) (UniProt P54753); experiment: Selectivity interaction (KinomeScan (DiscoverX)) EUB0001079a EPHB3; details: at 1 µM
T1 sequence (whole entry): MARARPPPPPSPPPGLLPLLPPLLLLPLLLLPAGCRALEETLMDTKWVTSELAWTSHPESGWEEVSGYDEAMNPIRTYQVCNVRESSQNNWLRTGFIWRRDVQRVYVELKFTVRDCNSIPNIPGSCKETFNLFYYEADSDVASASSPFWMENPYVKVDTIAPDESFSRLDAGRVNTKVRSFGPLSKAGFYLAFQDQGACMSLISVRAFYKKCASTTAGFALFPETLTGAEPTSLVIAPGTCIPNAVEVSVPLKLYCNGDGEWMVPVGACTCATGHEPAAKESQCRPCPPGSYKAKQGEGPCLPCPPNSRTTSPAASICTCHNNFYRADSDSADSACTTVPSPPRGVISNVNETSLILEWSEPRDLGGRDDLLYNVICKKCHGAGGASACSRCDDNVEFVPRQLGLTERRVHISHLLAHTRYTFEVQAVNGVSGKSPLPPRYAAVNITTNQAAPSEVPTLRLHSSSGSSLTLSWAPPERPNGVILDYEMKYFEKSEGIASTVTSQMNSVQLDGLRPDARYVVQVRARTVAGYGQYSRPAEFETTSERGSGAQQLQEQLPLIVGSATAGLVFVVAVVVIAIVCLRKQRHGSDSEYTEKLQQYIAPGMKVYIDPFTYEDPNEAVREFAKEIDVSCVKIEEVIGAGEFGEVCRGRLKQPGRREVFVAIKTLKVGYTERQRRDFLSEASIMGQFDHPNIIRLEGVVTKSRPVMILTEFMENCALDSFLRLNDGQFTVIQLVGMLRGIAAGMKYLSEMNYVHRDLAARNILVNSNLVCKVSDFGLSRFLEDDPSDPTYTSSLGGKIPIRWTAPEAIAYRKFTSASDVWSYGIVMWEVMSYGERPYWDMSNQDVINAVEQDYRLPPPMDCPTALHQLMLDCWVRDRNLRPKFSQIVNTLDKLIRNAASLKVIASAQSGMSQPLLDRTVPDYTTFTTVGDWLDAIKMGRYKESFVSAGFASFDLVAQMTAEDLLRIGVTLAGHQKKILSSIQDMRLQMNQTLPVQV

[5] = tested on: Epidermal growth factor receptor (Homo sapiens), P00533 [UNDEFINED MUTATION]; details: at 10 µM
[6] = molecular target: High affinity nerve growth factor receptor (Homo sapiens, UniProt P04629); experiment: Selectivity interaction (ProQinase) EUB0000171b NTRK1
[7] = molecular target: Cyclin-dependent kinase 8 (Homo sapiens, UniProt P49336); experiment: Selectivity interaction (KinomeScan (DiscoverX)) EUB0001049a CDK8; details: at 1 µM
[8] = molecular target: Cyclin-dependent kinase 15 (Homo sapiens) (UniProt Q96Q40); experiment: Selectivity interaction (KinomeScan (DiscoverX)) EUB0001049a CDK15; details: at 1 µM
[9] = molecular target: Vascular endothelial growth factor receptor 3 (Homo sapiens, UniProt P35916); experiment: Selectivity interaction (KinomeScan (DiscoverX)) EUB0000666a FLT4; details: at 10 µM
[10] = molecular target: Mitogen-activated protein kinase 7 (Homo sapiens) (UniProt Q13164); experiment: Selectivity interaction (Kinase panel (Z-LYTE Assay)) EUB0001632a MAPK7; details: at 10 µM
[11] = molecular target: T2, Serine/threonine-protein kinase haspin (Homo sapiens) (UniProt Q8TF76); experiment: Selectivity interaction (Adapta Assay) EUB0001632a GSG2; details: at 10 µM
T2 sequence (whole entry): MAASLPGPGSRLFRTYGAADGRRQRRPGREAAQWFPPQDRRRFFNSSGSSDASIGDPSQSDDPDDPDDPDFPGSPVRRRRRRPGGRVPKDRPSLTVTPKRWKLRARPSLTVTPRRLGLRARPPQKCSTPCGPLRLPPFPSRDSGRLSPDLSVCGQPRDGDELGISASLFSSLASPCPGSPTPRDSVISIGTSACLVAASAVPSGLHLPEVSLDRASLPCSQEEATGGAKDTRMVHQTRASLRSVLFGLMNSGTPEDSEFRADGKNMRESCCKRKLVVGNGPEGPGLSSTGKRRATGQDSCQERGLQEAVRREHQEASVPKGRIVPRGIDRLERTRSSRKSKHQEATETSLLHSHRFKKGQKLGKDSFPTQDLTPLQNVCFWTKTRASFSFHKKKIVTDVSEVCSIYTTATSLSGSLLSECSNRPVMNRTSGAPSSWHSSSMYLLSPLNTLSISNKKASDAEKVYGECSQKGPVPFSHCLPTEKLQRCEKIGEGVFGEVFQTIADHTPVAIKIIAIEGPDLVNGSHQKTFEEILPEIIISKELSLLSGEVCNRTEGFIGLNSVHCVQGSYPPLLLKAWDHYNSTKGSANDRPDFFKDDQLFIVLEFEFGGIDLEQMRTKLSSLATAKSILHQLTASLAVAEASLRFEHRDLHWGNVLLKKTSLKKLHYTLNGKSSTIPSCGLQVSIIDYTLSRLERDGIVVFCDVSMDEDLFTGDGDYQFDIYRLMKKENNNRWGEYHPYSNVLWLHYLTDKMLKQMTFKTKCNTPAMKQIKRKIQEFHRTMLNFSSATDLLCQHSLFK

Chain of Protein arginine N-methyltransferase 6 (Q96LA8 whole entry, looked up): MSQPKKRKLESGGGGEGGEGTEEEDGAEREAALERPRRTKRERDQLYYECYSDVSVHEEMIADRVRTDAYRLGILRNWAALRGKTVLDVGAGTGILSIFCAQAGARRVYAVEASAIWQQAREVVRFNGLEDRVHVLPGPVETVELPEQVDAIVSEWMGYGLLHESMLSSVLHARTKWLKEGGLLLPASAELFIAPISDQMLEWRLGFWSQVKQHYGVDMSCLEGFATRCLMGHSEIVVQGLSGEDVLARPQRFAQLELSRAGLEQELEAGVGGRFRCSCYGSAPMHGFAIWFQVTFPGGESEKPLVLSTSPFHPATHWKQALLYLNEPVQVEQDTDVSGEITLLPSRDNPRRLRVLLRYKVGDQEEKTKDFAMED
Chain of High affinity nerve growth factor receptor (P04629 33-796 limits assumed): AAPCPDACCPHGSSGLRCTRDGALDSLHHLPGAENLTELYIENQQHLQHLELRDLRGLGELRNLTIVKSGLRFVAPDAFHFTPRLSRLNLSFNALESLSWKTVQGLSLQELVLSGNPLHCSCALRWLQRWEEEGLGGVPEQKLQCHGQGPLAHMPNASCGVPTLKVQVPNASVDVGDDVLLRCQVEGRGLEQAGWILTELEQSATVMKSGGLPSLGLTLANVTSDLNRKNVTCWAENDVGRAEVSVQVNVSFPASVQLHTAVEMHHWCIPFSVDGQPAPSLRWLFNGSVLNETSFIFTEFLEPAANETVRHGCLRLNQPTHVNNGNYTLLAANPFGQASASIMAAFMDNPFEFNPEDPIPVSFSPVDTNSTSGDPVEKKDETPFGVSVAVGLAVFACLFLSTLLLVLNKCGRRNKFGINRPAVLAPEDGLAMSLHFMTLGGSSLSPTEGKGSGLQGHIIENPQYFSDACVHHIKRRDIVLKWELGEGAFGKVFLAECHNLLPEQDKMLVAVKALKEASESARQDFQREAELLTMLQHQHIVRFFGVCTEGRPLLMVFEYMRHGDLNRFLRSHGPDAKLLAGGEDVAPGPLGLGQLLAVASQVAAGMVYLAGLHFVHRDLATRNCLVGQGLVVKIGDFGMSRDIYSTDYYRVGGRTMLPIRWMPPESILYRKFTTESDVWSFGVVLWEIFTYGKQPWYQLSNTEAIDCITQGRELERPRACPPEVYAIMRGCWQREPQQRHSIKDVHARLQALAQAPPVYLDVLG
Chain of 5'-AMP-activated protein kinase catalytic subunit alpha-1 (Q13131 whole entry, looked up): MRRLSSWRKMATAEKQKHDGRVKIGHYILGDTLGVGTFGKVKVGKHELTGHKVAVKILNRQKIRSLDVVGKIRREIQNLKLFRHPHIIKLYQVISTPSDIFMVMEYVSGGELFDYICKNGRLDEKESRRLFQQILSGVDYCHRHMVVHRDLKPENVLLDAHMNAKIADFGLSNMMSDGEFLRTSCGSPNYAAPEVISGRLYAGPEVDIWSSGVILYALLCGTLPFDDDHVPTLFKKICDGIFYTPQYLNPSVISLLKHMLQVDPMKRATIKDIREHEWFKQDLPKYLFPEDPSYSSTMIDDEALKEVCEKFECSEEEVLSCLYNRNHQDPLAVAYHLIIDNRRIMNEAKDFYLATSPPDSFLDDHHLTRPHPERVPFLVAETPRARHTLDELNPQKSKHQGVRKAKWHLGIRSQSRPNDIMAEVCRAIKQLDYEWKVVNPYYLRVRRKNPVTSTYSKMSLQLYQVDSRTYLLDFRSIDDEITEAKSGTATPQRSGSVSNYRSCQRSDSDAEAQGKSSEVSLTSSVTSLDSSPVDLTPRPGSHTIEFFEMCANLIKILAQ
Chain of Mitogen-activated protein kinase 7 (Homo sapiens) (Q13164 2-816 limits assumed): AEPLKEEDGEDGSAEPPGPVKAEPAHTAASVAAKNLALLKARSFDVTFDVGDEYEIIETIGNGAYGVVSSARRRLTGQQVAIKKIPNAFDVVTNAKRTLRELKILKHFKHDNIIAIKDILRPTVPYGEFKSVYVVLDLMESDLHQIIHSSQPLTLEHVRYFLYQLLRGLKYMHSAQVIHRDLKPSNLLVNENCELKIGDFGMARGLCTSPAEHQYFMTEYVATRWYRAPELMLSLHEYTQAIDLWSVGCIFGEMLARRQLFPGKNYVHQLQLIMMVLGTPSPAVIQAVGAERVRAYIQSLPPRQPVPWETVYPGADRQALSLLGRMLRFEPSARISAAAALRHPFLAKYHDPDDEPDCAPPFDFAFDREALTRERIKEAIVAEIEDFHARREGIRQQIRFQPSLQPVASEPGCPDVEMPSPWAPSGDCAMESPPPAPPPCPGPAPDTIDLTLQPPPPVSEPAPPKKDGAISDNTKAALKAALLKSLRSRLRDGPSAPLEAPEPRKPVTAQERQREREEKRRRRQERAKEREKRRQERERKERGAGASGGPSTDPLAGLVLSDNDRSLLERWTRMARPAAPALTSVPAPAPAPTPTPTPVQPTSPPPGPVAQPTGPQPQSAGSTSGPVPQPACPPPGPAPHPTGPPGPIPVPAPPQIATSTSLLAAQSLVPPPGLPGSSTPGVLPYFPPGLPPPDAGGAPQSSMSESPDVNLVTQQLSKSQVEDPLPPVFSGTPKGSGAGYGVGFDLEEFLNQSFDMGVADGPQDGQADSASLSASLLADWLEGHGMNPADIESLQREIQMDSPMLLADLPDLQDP
Chain of Cyclin-dependent kinase 8 (P49336 whole entry): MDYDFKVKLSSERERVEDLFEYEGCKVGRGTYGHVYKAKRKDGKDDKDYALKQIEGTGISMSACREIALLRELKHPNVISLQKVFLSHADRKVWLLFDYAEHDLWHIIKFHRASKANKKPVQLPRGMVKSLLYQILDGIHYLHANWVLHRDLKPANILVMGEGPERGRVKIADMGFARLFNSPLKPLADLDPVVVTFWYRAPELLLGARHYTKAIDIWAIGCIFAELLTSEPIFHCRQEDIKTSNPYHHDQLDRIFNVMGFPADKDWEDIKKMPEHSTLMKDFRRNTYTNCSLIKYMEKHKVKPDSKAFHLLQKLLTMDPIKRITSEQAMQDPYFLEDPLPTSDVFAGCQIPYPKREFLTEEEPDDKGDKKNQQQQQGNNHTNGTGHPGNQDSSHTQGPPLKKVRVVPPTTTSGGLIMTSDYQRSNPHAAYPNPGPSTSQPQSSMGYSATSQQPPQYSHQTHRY
Chain of Mitogen-activated protein kinase 8 (P45983 whole entry): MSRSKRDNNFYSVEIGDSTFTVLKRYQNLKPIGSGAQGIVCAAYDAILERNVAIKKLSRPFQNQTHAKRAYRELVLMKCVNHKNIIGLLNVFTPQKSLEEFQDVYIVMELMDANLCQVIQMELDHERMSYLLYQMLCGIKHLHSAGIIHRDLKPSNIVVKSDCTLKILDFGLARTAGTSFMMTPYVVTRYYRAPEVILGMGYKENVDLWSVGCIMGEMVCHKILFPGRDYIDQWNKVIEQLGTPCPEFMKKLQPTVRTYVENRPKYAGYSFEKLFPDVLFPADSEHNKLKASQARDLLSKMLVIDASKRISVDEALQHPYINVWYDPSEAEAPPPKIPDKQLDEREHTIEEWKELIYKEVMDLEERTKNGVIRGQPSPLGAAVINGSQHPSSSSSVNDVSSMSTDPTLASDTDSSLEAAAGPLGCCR
Chain of Cyclin-dependent kinase 15 (Homo sapiens) (Q96Q40 whole entry): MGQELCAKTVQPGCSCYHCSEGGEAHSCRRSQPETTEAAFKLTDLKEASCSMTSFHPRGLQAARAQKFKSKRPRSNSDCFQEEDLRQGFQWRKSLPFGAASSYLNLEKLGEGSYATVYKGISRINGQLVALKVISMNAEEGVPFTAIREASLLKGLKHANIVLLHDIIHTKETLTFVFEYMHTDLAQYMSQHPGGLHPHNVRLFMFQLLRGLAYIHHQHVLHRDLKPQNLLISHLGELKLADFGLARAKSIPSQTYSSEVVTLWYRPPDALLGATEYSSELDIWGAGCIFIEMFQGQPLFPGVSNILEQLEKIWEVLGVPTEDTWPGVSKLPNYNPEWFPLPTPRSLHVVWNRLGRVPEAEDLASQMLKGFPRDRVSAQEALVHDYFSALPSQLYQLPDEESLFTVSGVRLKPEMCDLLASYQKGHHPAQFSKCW
Chain of Epidermal growth factor receptor (Homo sapiens), P00533 [UNDEFINED MUTATION] (P00533 whole entry, looked up, change not shown): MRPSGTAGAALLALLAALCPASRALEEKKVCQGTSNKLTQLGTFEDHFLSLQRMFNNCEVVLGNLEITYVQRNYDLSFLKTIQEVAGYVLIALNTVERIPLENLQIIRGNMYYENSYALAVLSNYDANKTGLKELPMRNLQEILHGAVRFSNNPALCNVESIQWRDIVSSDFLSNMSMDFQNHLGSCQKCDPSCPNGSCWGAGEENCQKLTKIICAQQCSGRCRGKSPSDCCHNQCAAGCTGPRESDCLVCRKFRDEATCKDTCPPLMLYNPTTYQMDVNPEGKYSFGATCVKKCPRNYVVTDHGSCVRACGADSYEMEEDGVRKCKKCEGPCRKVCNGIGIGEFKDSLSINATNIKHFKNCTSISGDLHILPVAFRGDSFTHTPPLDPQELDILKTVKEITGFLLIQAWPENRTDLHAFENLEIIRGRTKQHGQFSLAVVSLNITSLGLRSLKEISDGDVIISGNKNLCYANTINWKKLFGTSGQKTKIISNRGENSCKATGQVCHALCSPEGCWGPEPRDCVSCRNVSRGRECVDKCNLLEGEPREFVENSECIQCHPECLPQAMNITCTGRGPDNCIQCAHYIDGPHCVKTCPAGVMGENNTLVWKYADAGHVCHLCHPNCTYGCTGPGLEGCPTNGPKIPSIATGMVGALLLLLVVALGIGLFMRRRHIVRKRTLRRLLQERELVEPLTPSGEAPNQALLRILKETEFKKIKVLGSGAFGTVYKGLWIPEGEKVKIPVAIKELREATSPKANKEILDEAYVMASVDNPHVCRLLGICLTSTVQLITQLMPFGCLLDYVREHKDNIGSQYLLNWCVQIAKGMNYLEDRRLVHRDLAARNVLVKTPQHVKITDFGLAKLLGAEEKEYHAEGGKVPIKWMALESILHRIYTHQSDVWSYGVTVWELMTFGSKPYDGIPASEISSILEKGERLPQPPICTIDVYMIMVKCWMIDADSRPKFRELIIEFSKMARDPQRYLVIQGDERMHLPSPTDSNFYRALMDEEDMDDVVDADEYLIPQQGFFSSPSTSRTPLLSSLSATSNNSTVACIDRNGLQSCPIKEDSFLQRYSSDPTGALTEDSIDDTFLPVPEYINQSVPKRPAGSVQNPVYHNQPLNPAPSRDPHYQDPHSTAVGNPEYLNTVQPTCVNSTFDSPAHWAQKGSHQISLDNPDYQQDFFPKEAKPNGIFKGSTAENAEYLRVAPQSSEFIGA

Cc1cc(C)cc([C@H]2c3cc(C)ccc3NC(=O)CN2C(=O)c2ccc(Br)s2)c1
% of activity ([1]; at 1 µM): 92.3%
% of activity ([1]; at 10 µM): 92.7%

CN(C)C/C=C/C(=O)Nc1ccc(C(=O)N2CCCC(Nc3ncc(Cl)c(-c4c[nH]c5ccccc45)n3)C2)cc1 (stereo not drawn)
% of control [2]: 79%

CN1Cc2nccc(-c3cn(C)nc3-c3ccc(F)cc3)c2C1=O
% of inhibition [3]: -2%

Nc1cnc(N2CCc3cc(S(=O)(=O)Nc4c(F)cc(Cl)cc4F)cc(N4CCCC4=O)c32)nc1 [TP-020n]
% of control [4]: 100%

Cc1cc([C@@H](C)Nc2ccccc2C(=O)O)c2nc(N3CCOCC3)cc(=O)n2c1 [AZD-6482]
% of control [5]: 100%

C=CC(=O)Nc1cccc(C(=O)Nc2ccc(Nc3cc(-c4[nH]c(SC)nc4C)ccn3)cc2)c1
% of control ([6]; at 1 µM): 81%
% of control ([6]; at 5 µM): 58%

COc1cc(Nc2nc(C)cc(-c3cnn4nc(OC)ccc34)n2)cc(C(F)(F)F)c1
% of control [7]: 100%
% of control [8]: 90%

O=C(NOC[C@H](O)CO)c1ccc(F)c(F)c1Nc1ccc(I)cc1F
% of control [9]: 94%

Cn1cc(-n2cnc3c(NCc4nc5cc(Cl)c(Cl)cc5[nH]4)nc(N4CCOCC4)nc32)cn1
% of control [10]: 2.02%
% of inhibition [11]: 45%
